We go through 14 compounds from PMC7821181, “MS Binding Assays for Glycine Transporter 2 (GlyT2) Employing Org25543 as Reporter Ligand” (Chemmedchem, 2020).

Each structure is given as a SMILES string. Several values for one entry are separate records, joined by “and”; a condition that tells them apart may be missing. Equal entries are not always repeated. Entries after “also recorded” stand apart in the source; their conditions may differ. Where two headings read alike, the source gives them in different places. Some results are limits rather than exact numbers.

As a reminder, the IC50 is the concentration that gives 50% inhibition. By EC50 is commonly meant the concentration needed to bring the measured effect to its halfway point.

One experiment addresses T1, hGlyT2 (Homo sapiens, UniProt Q9Y345).
T1 construct: host or cells: HEK293 cells stably expressing hGlyT2; crude membrane fractions
T1 sequence (Q9Y345 1-797): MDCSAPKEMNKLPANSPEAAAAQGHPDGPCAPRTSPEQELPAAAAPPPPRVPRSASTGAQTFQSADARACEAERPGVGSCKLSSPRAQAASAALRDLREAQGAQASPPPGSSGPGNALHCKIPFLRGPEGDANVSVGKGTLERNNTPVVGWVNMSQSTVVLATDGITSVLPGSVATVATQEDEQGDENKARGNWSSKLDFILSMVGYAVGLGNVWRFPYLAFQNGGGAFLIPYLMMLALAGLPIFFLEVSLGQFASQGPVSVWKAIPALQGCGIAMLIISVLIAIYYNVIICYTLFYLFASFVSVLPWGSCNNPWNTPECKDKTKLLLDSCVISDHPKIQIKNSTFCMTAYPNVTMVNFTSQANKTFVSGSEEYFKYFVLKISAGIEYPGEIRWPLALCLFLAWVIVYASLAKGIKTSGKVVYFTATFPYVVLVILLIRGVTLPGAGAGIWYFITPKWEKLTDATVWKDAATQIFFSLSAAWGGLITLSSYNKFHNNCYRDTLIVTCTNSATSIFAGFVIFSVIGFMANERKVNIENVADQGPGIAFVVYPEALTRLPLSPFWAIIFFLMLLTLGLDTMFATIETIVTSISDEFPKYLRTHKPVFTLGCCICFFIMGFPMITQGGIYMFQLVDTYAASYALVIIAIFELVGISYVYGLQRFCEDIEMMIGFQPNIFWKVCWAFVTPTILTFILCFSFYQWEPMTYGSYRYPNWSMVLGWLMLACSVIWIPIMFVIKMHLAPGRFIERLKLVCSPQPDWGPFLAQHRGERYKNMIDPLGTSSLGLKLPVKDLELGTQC
Briefly: GlyT2 MS Binding Assays: competition experiments with Org25543 as reporter ligand. The settings on record: for affinity / inhibition of Org25543 binding, in words: up to highest concentration (sarcosine, L-serine, DL-leucine mM; Org24598 300 μM; LY2365109 10 μM; ALX5407 600 μM); for completeness of displacement of Org25543 from GlyT2, in words: up to the highest concentration investigated (glycine 1 M). The protocol:
For the development of the desired competitive MS Binding Assay, the general concept of this kind of binding experiments was followed, in which the affinity of a test compound is delineated from its potency to compete out a reporter ligand, in our case Org25543, from its target binding site. Accordingly, the target protein was incubated with a defined concentration of the reporter ligand and increasing concentration of the individual test compound. In detail, the competitors were studied at seven different concentration levels, which covered about three concentration log units, whereas the concentration of Org25543 was fixed to 10 nM. Thereafter, via the developed LC‐ESI‐MS/MS method the amount of bound marker (total binding) was determined for the samples obtained from the individual incubation mixtures by the common workup for MS Binding Assays. Nonspecific binding was again determined in a set of analogous experiments in which GlyT2 membrane fractions were replaced by material subjected to a heat‐shock before. The resulting amount of Org25543 binding was defined as 0 % level of specific reporter ligand binding. […] The thus determined IC50 values were finally used to calculate the corresponding K i values by means of the Cheng‐Prusoff equation.
For preparation of GlyT2 membrane preparations HEK293 cells, stably expressing the hGlyT2 with a confluence ≥90 %, were used (kindly provided by AbbVie (Wiesbaden, Germany)). As cell culture medium DMEM containing 10 % fetal bovine serum (m/v), 100 U mL^−1 penicillin, 100 μg mL^−1 streptomycin and […] hygromycin B was used and the cells were cultivated in dishes (143 cm^2) at 37 °C and 8 % CO2. The cells were detached from the dish by aspirating the medium, adding 12 mL cell culture medium without hygromycin B and pipetting the medium several times until the cell lawn was completely detached. Subsequently, the cells were washed twice with PBS (5 min, 1600 rpm, Biofuge Stratos, rotor: #3047, Heraeus, Hanau, Germany) and afterwards homogenized in incubation buffer (10 mM HEPES, 120 mM NaCl, 2 mM KCl, 1 mM MgCl2, 1 mM CaCl2, pH 7.5) using a Polytron PTA 10 S (Kinematica Polytron, Littau‐Luzern, Switzerland). After homogenization aliquots of about 1 mg protein were frozen and stored at −80 °C. To determine the amount of protein in the membrane preparation (after treatment with 100 mM NaOH for 1 h) the protein determination according to Bradford ^[63] was applied, using bovine serum albumin as standard for calibration. At the day of the assay the membrane preparation was rapidly thawed, diluted in 20 mL incubation buffer and centrifuged at 4 °C for 20 min at 20 500 rpm (Sorvall Evolution RC, rotor: SS34, Thermo. Electron, Hanau, Germany). Finally, the resulting pellet was resuspended in 6 mL incubation buffer yielding a protein concentration of ∼0.1–0.2 mg mL^−1.
In polypropylene 96‐well plates (1.2 mL well volume, Sarstedt) membrane preparations (∼5–10 μg protein) were incubated in the presence of the reporter ligand and, if required, test compounds in incubation buffer (10 mM HEPES, 120 mM NaCl, 2 mM KCl, 1 mM MgCl2, 1 mM CaCl2, pH 7.5) in a total volume of 250 μL at 37 °C in a Julabo SW‐20 C water bath (Julabo GmbH, Seelbach, Germany) for 1 h (every sample was prepared in triplicates). After the incubation 210 μL aliquots of the binding samples were transferred by means of a 12‐channel pipette onto 96‐well glass fiber filter plates (AcroPrep Advance, glass fiber, 1.0 μm, 350 μL; Pall Corporation, Port Washington, NY, USA) where the incubation was terminated by vacuum filtration (the samples were transferred and the incubation was terminated row after row; Multi Well Plate Vacuum Manifold, Pall, Dreieich, Germany).

The test system of experiment [1] is GlyT2. To be noted: cited from earlier work; for pIC50 (literature; calcd): calcd from literature IC50; for IC50: read-out: Biological activity, IC50 (literature).
For experiment [2], the system named is GlyT2. To be noted: ref 40; read-out: IC50 in glycine uptake studies; cited from earlier work.
Where [3] appears, read: read-out: Affinity, pKi (GlyT2 MS Binding Assays) (converted).
[4] abbreviates: compound 600 μM, Org25543 10 nM.

On to `CC(C)CC(N)C(=O)O` (racemic) [DL‐leucine], for which the “remaining Org25543 binding (% of specific binding) at the highest compound concentration” value at hGlyT2 (compound 10 mM, Org25543 10 nM) is recorded as 99±3%. Further, the Ki at hGlyT2 (setting [3]) was greater than 4270 µM. Further, the “affinity / inhibition of Org25543 binding, in words” value (shortened to “affinity / inhibition”) at hGlyT2 is given as “no inhibition of Org25543 binding to more than 50%”.
On to `O=C(O)C1CCCN1` (racemic) [DL‐proline], for which the “Glycine uptake in presence of 1 mM competitor (% of control)” value (from here on “Glycine uptake … (% of control)”) in the experiment with GlyT2 [1] is 95±5 %^[47],[c]. At hGlyT2 (setting [3]), the Ki is 31600 µM. The “completeness of displacement of Org25543 from GlyT2, in words” value (from here on “completeness of displacement of Org25543”) on hGlyT2 is listed as “not able to displace Org25543 completely”.
As for `CN(CC[C@@H](Oc1ccc(-c2ccccc2)cc1)c1ccc(F)cc1)CC(=O)O` [ALX5407, N‐[(3R)‐3‐([1,1′‐biphenyl]‐4‐yloxy)‐3‐(4‐fluorophenyl)propyl]‐N‐methylglycine], in the experiment with GlyT2 [1] (ref 40), the “pIC50 (literature; calcd)” value was 5.74 and the IC50 was 1.8 µM. In addition, in the experiment on GlyT2 [1] (ref 54), the “pIC50 (literature; calcd)” value is listed as less than 4 and the IC50 was greater than 100 µM. Besides, at hGlyT2, the IC50 was greater than 600 µM and the “affinity / inhibition” value is “hardly a reduction of Org25543 binding”. Moreover, the “remaining Org25543 binding (% of specific binding) at the highest compound concentration” value at hGlyT2 (setting [4]) came out at 90±5%. Besides, the Ki at hGlyT2 (setting [3]) is greater than 257 µM.
Turning to `CC(C)c1nnc(-c2ccc(-c3ccccc3)nc2)n1-c1cccc2nonc12` [ASP2535, 4‐[3‐(1‐methylethyl)‐5‐(6‐phenyl‐3‐pyridinyl)‐4H‐1,2,4‐triazol‐4‐yl]‐2,1,3‐benzoxadiazole], in the experiment on GlyT2 [1] (ref 56), the “pIC50 (literature; calcd)” value was 5.34 and the half-inhibitory concentration (IC50) is 4.6 ± 0.29 µM. Also, the Ki at hGlyT2 (setting [3]) is 1.02 µM.
In the case of `CN(CCC(Oc1ccc(C(=O)c2nccs2)cc1)c1ccc(Cl)cc1)CC(=O)O` (stereo not shown) [CP‐802,079, N‐[3‐(4‐chlorophenyl)‐3‐[4‐(2‐thiazolylcarbonyl)phenoxy]propyl]‐N‐methyl‐glycine], in the experiment with GlyT2 [1] (ref 55), the “pIC50 (literature; calcd)” value is given as less than 5 and the IC50 is greater than 10 µM. The Ki at hGlyT2 (setting [3]) was 22.9 µM.
As for `CN(CCOc1ccc(-c2ccc3c(c2)OCO3)cc1C(C)(C)C)CC(=O)O` [LY2365109, N‐[2‐[4‐(1,3‐benzodioxol‐5‐yl)‐2‐(1,1‐dimethylethyl)‐phenoxy]ethyl]‐N‐methylglycine], in the experiment on GlyT2 [1] (ref 57), the “pIC50 (literature; calcd)” value is less than 4.52 and the IC50 was greater than 30 µM. In addition, the “remaining Org25543 binding (% of specific binding) at the highest compound concentration” value at hGlyT2 (compound 10 μM, Org25543 10 nM) is 94±10%. For the same compound, the Ki at hGlyT2 (setting [3]) is greater than 4.27 µM. The “affinity / inhibition” value at hGlyT2 is on record as “hardly any affinity”.
`N[C@@H](CO)C(=O)O` [L‐serine]: the “Glycine uptake … (% of control)” value with GlyT2 [1] is 89±7 %^[47],[c]. Also, the “remaining Org25543 binding (% of specific binding) at the highest compound concentration” value at hGlyT2 (compound 180 mM, Org25543 10 nM) was 97±4%. Besides, the Ki on hGlyT2 (setting [3]) was greater than 77600 µM. Also, the “affinity / inhibition” value on hGlyT2 is on record as “no inhibition of Org25543 binding to more than 50%”.
Consider `CCCCCCCC/C=C\CCCCCCCC(=O)NCC(=O)O` [N‐oleoylglycine, N‐(1‐oxo‐9‐octadecenyl)‐(Z)‐glycine], for which, in the experiment on GlyT2 [1] (ref 19), the “pIC50 (literature; calcd)” value is recorded as 6.30 and the IC50 is 0.5 µM. Further, the Ki at hGlyT2 (setting [3]) was 2.34 µM. In addition, the “completeness of displacement of Org25543” value on hGlyT2 is on record as “not able to displace Org25543 completely”.
For the compound `CN(CC[C@@H](Oc1ccc(C(F)(F)F)cc1)c1ccccc1)CC(=O)O` [Org24598, N‐methyl‐N‐[(3R)‐3‐phenyl‐3‐[4‐(trifluoromethyl)phenoxy]propyl]glycine], in the experiment with GlyT2 [1] (ref 53), the “pIC50 (literature; calcd)” value is given as less than 4 and the IC50 was greater than 100 µM. Moreover, the “remaining Org25543 binding (% of specific binding) at the highest compound concentration” value on hGlyT2 (compound 300 μM, Org25543 10 nM) is recorded as 101±5%. On hGlyT2 (setting [3]), the Ki was greater than 129 µM. Further, at hGlyT2, the “affinity / inhibition” value was “hardly any affinity”.
As for `O=C(O)CCCCSc1ncnc2[nH]c(O)nc12` [ZINC6865169, 5‐((8‐hydroxy‐9H‐purin‐6‐yl)thio)pentanoic acid], in the experiment with GlyT2 [1] (ref 40), the “pIC50 (literature; calcd)” value is given as 6.29. Also, the IC50 was 0.518 ± 0.066 µM with GlyT2 [1] (ref 40), greater than 600 µM on hGlyT2 and 0.518 µM in the experiment with GlyT2 [2]. Moreover, the “remaining Org25543 binding (% of specific binding) at the highest compound concentration” value at hGlyT2 (setting [4]) is 77% and 77±6%. Further, the Ki on hGlyT2 (setting [3]) was greater than 257 µM.
With `CN(C)CCCN1c2ccccc2Sc2ccc(Cl)cc21` [chlorpromazine], in the experiment with GlyT2 [1] (ref 58), the “pIC50 (literature; calcd)” value is on record as 4.68 and the IC50 was 21 ± 4 µM. Also, the Ki at hGlyT2 (setting [3]) is 28.2 µM.
Regarding `COC(=O)CN` [glycine methyl ester], in the experiment on GlyT2 [1], the “Glycine uptake … (% of control)” value was 84±5 %^[47],[c]. At hGlyT2 (setting [3]), the Ki is 77600 µM.
`NCC(=O)O` [glycine]: in the experiment on GlyT2 [1] (K m and EC50 values, read-out: Biological activity (literature): K m and EC50 values), the EC50 was 6 to 1800 µM. For the same compound, on hGlyT2 (Org25543 10 nM, 37 °C, 1 h, mean±SEM, n=3–5, bounds in brackets where less than 50 % inhibition), the “Affinity, pKi (GlyT2 MS Binding Assays)” value stood at 1.98±0.08. Further, the Ki on hGlyT2 (approximate value, read-out: Ki at GlyT2 in competition experiments) was roughly 10000 µM. Further, the “completeness of displacement of Org25543” value at hGlyT2 was “not able to displace Org25543 completely; also recorded: cannot completely displace Org25543”.
On to `CNCC(=O)O` [sarcosine], for which, in the experiment on GlyT2 [1] (ref 22), the “pIC50 (literature; calcd)” value is recorded as less than 3 and the IC50 was greater than 1000 µM. Also, the “remaining Org25543 binding (% of specific binding) at the highest compound concentration” value at hGlyT2 (compound 2.2 mM, Org25543 10 nM) is reported as 98±6%. For the same compound, the Ki at hGlyT2 (setting [3]) is greater than 933 µM. The “affinity / inhibition” value at hGlyT2 is recorded as “no inhibition of Org25543 binding to more than 50%”.
